According to ChEMBL document CHEMBL3425487, “Synthesis of new thiazolylmethoxyphenyl pyrimidines and antihyperglycemic evaluation of the pyrimidines, analogues isoxazolines and pyrazolines” (2015):

System: Rattus norvegicus
Test: Antihyperglycemic activity in normoglycemic male albino Sprague-Dawley rat assessed as improvement in sucrose tolerance at 100 mg/kg, po by Oral sucrose tolerance test
Format: functional

Row | Compound | Activity [%]
1 | c1ccc(C2=NNC(c3ccc(OCc4csc(-c5ccccc5)n4)cc3)C2)cc1 (stereo not drawn) | 7.42
2 | COc1ccc(C2=NNC(c3ccc(OCc4csc(-c5ccccc5)n4)cc3)C2)cc1 (stereo not drawn) | 0.85
3 | Fc1ccc(C2=NNC(c3ccc(OCc4csc(-c5ccccc5)n4)cc3)C2)cc1 (stereo not drawn) | 10.4
4 | O=[N+]([O-])c1ccc(C2=NNC(c3ccc(OCc4csc(-c5ccccc5)n4)cc3)C2)cc1 (stereo not drawn) | 2.47
5 | c1ccc(C2=NOC(c3ccc(OCc4csc(-c5ccccc5)n4)cc3)C2)cc1 (stereo not drawn) | 2.73
6 | COc1ccc(C2=NOC(c3ccc(OCc4csc(-c5ccccc5)n4)cc3)C2)cc1 (stereo not drawn) | 8.37
7 | Fc1ccc(C2=NOC(c3ccc(OCc4csc(-c5ccccc5)n4)cc3)C2)cc1 (stereo not drawn) | 4.88
8 | O=[N+]([O-])c1ccc(C2=NOC(c3ccc(OCc4csc(-c5ccccc5)n4)cc3)C2)cc1 (stereo not drawn) | 0.91
9 | S=C1NC(c2ccccc2)=CC(c2ccc(OCc3csc(-c4ccccc4)n3)cc2)N1 (stereo not drawn) | 0.07
10 | COc1ccc(C2=CC(c3ccc(OCc4csc(-c5ccccc5)n4)cc3)NC(=S)N2)cc1 (stereo not drawn) | 1.05
11 | Fc1ccc(C2=CC(c3ccc(OCc4csc(-c5ccccc5)n4)cc3)NC(=S)N2)cc1 (stereo not drawn) | 8.22
12 | O=[N+]([O-])c1ccc(C2=CC(c3ccc(OCc4csc(-c5ccccc5)n4)cc3)NC(=S)N2)cc1 (stereo not drawn) | 7.04
13 | CN(C)C(=N)NC(=N)N [METFORMIN] | 14.1
